The values below come from PMC7389528, “Anti-tubercular derivatives of rhein require activation by the monoglyceride lipase Rv0183” (The Cell Surface, 2020).

For test [1], the target named is Rv0183-VAAQD137D (Mycobacterium tuberculosis, UniProt O07427, DEL137-140). The class given is biochemical, M. bovis BCG.
Test [2] has as its target Rv0183-S172P (Mycobacterium tuberculosis, UniProt O07427, S172P). In kind it is biochemical, M. bovis BCG.
Test [3] deals with Mtb clinical isolate 14231. Description: microbe, parasite or virus in culture. The conditions noted are these: Mycobacterium tuberculosis. In kind it is cell-based.
Test [4] deals with T1, WT Rv0183 (BCG_0220) (Mycobacterium tuberculosis, UniProt O07427).
T1 construct: poly-histidine (pET28a vector-encoded) (N); made in house; host or cells: E. coli SHuffle T7 (K12), pET28a
In kind it is biochemical. The following applies: 10 μM WT Rv0183, 5 μg compound, 37 °C, 1 h.

Test [5] deals with M. bovis BCG. In kind it is cell-based.
The subject of test [6] is Mtb clinical isolate 12611. Description: microbe, parasite or virus in culture. In kind it is cell-based. The conditions noted are these: Mycobacterium tuberculosis.
The subject of test [7] is M. bovis BCG HTB-04 mutant 2 (BCG_0220-S172P). In kind it is cell-based.

Values after ≈ are worked out from the molar mass of the structure shown. Values joined by “and” are separate entries in the source; they are usually repeats but may differ in a detail not shown here. Identical values can stand only once. “Also recorded” adds a separate entry of the source.

For `O=C(OCCCCCl)c1cc(O)c2c(c1)C(=O)c1cccc(O)c1C2=O` [HTB-03], the “enzyme activity on compound (TLC)” value is given as “minimal” in test [1], “no activity” in test [2] and “converted to rhein” in test [4]. In addition, the MIC in test [3] amounted to 2.4 µM (≈ 0.899 µg/mL); in test [6] it was 2.64 µM (≈ 0.989 µg/mL). In test [5], the frequency of resistance is 83 × 10^-8 and 100 × 10^-8.
As usually defined, the IC50 is the concentration that inhibits the measured activity by half. High values mean weaker potency in that assay, low ones greater potency in that assay. `CC(=O)Oc1cccc2c1C(=O)c1c(OC(C)=O)cc(C(=O)OCCCCCl)cc1C2=O` [HTB-04]: the MIC in test [3] was 2.04 µM (≈ 0.936 µg/mL); in test [6] it was 3.66 µM (≈ 1.68 µg/mL). In addition, in test [4], the “enzyme activity on compound (TLC)” value is on record as “partially hydrolyzed to rhein; also recorded: inconclusive”. Further, in test [7], the IC50 is 6.23 µM and 3.51 µM. For the same compound, the frequency of resistance in test [5] is 85 × 10^-8.
In the case of `NNC(=O)c1ccncc1` [INH, isoniazid, reference compound], the MIC in test [3] is more than 292 µM; in test [6], 142 µM (≈ 19.5 µg/mL).
Regarding `O=C(O)c1cc(O)c2c(c1)C(=O)c1cccc(O)c1C2=O` [Rhein, rhein], the “enzyme activity on compound (TLC)” value in test [1], in test [2] and in test [4] was “no apparent activity” throughout.
